Assay results reported in patent US9023350B2, “Synergistic pharmaceutical composition useful for inhibiting corneal and retinal neovascularization (angiogenesis), and in other organs, in a human being or animals” (Association Civil de Estudios Superiores, priority 2007, dated 2015).

Assays:
[1] = system: CT26 cells (colon adenocarcinoma); assay: Oncological angiogenesis model, subcutaneous CT26 tumors; type: in vivo, Balb/c rats; conditions: day 31; single iv dose on day 7: Suramine 20 mg/Kg, Bevacizumab 5 mg/Kg, suramab = Suramine 20 mg/Kg + Bevacizumab 5 mg/Kg
Method: 5×10^5 CT26 cells (colon adenocarcinoma) were inoculated subcutaneously, in the dorsal-lateral region of Balb/c rats. On the 7th day of inoculation 4 groups of animals were formed that received different treatments via iv (in the tail vein).
• a. […] Control group: (n=7) PS 100 μl under slow infusion.
The tumors were measured three times per week. The following formula was used to calculate the tumor volume: […]. The animals having tumors volumes greater or equal to 8000 mm3 were sacrificed.
Survival was considered till day 35 post tumor inoculation.

corneal neovasculization = assay: Corneal neovasculization model (NaOH alkali burn of the cornea), neovasculization index; type: in vivo; conditions: rabbit, during 35 days of evaluation, single iv dose
Method: After anaesthetizing a Newzealender breed white rabbit of 3 kg. with a midazolam and ketamine hydrochloride with an intramuscular injection, installation of topical proparacaine was performed (Anestalcon, Alcon, Argentina) in the eye and a blepharostat was place on the right eye. During 20 seconds 7 mm diameter dicks of Whatman filter paper were soaked in a 1N NaOH solution. The paper disk was placed on the central part of the cornea with a pincer leaving it there for 2 minutes. Immediately afterwards the injured zone was washed with 15 ml saline physiological solution (CINa, 0.9%) during one minute. The same process was performed on 12 rabbits of the same color, breed and weight.
Formation of neovessels were quantified with a value of 0 to 4 to each quadrant according to the centripetal growth of the longest vessel (in 1 mm increases i.e, 0=0 mm; 1=equal or less than 1 mm; 2=more than 1 and up to 2 mm; 3=more than 2 and up to 3 mm; 4=more than 3 mm). The sum of the four quadrants provided the neovasculization index (INV) for that eye.
24 hs after the lesion was caused the first clinical examination was performed and was then continued every three days. This was carried out using an operator microscope or a surgical magnifying glass and photographs were taken with a digital camera Nikon Coolpix 5700. The INV register was performed on days 9, 15, 21 and 35 on all the animals. […]

Compound	tumor volume compared to the control group (in words) [1]	effect on corneal neovasculization (in words) (corneal neovasculization)
Cc1ccc(C(=O)Nc2ccc(S(=O)(=O)O)c3cc(S(=O)(=O)O)cc(S(=O)(=O)O)c23)cc1NC(=O)c1cccc(NC(=O)Nc2cccc(C(=O)Nc3cc(C(=O)Nc4ccc(S(=O)(=O)O)c5cc(S(=O)(=O)O)cc(S(=O)(=O)O)c45)ccc3C)c2)c1 [Suramine]	reduction of tumor volume compared to the control group	inhibiting effect on neovasculization
Bevacizumab: monoclonal antibody, humanized and recombinant, that binds to VEGF-A	reduction of tumor volume compared to the control group	inhibiting effect on neovasculization
